Laboratory results as given in US12485154B2 (priority 2019, dated 2025).

Tested on: new influenza virus (A/California/04/2009(H1N1))
Format: in vivo
Settings: H1N1-infected BALB/c mice (6 per group), observed 14 days after infection; ginseng concentrates 10 mg/kg/day for 14 days before and one week after inoculation; Tamiflu 2 mg/kg/day

`CCOC(=O)C1=C[C@@H](OC(CC)CC)[C@H](NC(C)=O)[C@@H](N)C1` [Tamiflu] was tested, and the Fatality was 0%.
